From ChEMBL document CHEMBL5465560, “Selectivity Literature for EUbOPEN Chemogenomic Library” (2024)

Assays:
Ephrin type-A receptor 4 = Ephrin type-A receptor 4 (Homo sapiens, UniProt P54764); test: Selectivity interaction (SelectScreen profiling (Invitrogen)) EUB0000607a EPHA4; conditions: at 2 µM
[1] = target: Delta-type opioid receptor (Homo sapiens, UniProt P41143); test: Selectivity interaction (Panel of non-epigenetic targets (kinases, GPCRs, ion channels, and transporters, Eurofins) ) EUB0000271b OPRD1; conditions: at 1 µM
[2] = target: T1, Dual specificity mitogen-activated protein kinase kinase 3 (Homo sapiens) (UniProt P46734); test: Selectivity interaction (KinomeScan (DiscoverX)) EUB0000695a MAP2K3; conditions: at 100 nM
T1 sequence (whole entry): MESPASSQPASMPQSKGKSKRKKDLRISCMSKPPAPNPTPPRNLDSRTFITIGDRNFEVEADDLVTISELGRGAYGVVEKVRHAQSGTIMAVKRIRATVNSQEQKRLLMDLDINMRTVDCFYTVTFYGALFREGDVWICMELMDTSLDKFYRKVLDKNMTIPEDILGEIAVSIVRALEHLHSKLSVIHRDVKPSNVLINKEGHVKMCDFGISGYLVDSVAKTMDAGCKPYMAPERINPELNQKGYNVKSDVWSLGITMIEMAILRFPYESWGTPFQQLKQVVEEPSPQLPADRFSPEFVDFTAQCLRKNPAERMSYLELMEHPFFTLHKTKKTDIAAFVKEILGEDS

[3] = target: T2, Serine/threonine-protein kinase Nek1 (Homo sapiens) (UniProt Q96PY6); conditions: at 10 µM
T2 sequence (whole entry): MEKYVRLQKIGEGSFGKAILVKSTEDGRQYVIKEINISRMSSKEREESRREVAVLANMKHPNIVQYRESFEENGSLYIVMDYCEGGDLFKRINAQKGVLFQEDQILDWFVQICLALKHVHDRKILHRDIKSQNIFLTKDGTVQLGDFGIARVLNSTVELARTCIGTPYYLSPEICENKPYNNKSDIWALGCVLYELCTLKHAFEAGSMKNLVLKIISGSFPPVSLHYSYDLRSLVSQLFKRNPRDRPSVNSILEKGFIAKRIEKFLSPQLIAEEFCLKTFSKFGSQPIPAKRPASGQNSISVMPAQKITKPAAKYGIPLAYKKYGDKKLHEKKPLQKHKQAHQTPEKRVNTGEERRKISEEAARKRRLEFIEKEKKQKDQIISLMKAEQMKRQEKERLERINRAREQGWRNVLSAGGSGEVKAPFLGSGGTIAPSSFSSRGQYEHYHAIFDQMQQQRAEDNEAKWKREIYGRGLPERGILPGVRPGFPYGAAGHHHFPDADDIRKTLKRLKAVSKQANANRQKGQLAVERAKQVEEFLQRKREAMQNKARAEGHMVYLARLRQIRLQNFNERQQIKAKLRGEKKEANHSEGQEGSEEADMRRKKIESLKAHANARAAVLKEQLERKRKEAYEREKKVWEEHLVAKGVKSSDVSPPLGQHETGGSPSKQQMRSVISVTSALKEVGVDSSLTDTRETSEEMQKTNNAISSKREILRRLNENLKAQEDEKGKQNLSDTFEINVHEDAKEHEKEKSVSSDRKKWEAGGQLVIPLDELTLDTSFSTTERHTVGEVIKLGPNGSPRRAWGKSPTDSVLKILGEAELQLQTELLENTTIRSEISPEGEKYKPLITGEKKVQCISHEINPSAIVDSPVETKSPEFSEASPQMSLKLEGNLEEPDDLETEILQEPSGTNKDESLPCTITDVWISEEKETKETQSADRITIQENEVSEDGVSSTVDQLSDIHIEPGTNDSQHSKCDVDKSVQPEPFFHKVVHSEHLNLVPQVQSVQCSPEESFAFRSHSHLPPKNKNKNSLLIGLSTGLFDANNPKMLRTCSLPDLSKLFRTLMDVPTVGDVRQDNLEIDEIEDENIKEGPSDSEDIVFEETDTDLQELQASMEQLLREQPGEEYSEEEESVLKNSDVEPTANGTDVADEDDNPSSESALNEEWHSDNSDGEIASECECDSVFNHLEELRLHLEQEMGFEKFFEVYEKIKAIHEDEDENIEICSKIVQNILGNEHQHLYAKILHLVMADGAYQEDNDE

[4] = system: Phosphatidylinositol 4,5-bisphosphate 3-kinase catalytic subunit alpha isoform (Homo sapiens), P42336 [E545K]; conditions: at 10 µM
[5] = target: Dual specificity protein kinase CLK3 (Homo sapiens, UniProt P49761); test: Selectivity interaction (Kinase panel (DSF assay)) EUB0001558a CLK3
[6] = target: T3, Tyrosine-protein kinase Tec (Homo sapiens) (UniProt P42680); test: Selectivity interaction (KinomeScan (DiscoverX)) EUB0000045b TEC
T3 sequence (whole entry): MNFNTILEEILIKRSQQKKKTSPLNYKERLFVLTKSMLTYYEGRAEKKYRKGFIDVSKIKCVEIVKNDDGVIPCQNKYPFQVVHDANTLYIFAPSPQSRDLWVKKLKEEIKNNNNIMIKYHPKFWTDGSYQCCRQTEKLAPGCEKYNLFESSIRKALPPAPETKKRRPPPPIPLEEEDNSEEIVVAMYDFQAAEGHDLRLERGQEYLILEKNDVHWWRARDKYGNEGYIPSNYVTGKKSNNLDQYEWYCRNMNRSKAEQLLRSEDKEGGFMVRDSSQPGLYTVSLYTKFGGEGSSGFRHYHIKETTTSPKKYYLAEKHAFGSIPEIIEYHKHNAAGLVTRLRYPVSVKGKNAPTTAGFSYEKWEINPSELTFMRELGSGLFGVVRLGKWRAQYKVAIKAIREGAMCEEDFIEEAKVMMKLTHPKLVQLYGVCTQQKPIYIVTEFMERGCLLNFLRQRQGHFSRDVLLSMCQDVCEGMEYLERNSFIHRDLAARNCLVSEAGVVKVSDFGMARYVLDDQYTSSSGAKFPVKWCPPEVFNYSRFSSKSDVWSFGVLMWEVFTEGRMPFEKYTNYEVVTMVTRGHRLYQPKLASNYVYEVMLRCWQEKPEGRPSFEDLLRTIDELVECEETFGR

[7] = target: Protein kinase C eta type (Homo sapiens) (UniProt P24723); test: Selectivity interaction (KinomeScan (DiscoverX)) EUB0001079a PRKCH; conditions: at 1 µM
[8] = target: Ribosomal protein S6 kinase alpha-1 (Homo sapiens, UniProt Q15418); test: Selectivity interaction (ActivX KiNativ screen (ex vivo kinase selectivity in human PBMCs)) EUB0001619a RPS6KA1; format: cell-based; conditions: PBMC, at 1 µM
Sequence of Ribosomal protein S6 kinase alpha-1 (Q15418 whole entry): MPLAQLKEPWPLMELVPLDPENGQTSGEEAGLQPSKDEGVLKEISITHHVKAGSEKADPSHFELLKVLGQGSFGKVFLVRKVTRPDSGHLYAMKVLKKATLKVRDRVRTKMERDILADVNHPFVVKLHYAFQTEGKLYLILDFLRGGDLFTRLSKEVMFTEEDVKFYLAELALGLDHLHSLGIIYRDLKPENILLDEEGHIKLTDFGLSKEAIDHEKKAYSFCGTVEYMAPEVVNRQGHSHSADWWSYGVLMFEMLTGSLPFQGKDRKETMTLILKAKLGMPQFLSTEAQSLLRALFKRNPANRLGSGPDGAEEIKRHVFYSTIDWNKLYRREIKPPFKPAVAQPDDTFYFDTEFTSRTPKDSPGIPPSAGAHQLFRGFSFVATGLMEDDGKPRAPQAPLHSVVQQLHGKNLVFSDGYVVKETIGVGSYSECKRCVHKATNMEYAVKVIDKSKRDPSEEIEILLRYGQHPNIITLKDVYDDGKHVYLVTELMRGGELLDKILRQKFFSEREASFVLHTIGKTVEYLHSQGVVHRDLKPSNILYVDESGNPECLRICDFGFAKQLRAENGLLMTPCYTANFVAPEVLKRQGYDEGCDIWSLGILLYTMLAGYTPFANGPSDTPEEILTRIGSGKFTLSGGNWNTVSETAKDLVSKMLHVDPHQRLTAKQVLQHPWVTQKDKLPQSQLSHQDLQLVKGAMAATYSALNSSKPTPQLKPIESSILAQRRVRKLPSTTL

Sequence of Ephrin type-A receptor 4 (P54764 whole entry): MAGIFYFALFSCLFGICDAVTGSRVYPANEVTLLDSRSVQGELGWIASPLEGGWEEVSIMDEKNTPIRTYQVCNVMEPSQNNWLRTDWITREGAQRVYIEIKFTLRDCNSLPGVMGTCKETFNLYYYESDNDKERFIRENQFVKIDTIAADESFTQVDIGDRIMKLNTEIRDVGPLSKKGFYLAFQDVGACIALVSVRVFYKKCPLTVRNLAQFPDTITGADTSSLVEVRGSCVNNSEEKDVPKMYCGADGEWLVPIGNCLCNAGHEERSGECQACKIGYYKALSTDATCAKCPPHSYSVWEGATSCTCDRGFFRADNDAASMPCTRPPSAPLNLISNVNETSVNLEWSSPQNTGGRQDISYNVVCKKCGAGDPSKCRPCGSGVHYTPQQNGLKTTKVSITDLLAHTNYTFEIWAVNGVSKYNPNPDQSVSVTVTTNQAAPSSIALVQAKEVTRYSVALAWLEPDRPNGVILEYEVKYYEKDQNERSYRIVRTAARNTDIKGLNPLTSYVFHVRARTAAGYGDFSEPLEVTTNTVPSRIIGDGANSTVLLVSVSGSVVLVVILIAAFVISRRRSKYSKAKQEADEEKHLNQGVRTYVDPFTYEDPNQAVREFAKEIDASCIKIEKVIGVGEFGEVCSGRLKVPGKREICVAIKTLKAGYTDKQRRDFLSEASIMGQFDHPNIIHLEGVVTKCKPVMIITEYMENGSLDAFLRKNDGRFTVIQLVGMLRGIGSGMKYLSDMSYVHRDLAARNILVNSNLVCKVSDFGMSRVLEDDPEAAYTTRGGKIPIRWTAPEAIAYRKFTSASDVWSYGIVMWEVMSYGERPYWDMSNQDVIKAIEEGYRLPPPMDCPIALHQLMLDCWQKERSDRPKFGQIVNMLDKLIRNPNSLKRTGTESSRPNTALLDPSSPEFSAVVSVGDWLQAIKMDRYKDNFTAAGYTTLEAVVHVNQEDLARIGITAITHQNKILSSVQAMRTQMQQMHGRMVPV
Sequence of Phosphatidylinositol 4,5-bisphosphate 3-kinase catalytic subunit alpha isoform (Homo sapiens), P42336 [E545K] (P42336 whole entry E545K, canonical isoform): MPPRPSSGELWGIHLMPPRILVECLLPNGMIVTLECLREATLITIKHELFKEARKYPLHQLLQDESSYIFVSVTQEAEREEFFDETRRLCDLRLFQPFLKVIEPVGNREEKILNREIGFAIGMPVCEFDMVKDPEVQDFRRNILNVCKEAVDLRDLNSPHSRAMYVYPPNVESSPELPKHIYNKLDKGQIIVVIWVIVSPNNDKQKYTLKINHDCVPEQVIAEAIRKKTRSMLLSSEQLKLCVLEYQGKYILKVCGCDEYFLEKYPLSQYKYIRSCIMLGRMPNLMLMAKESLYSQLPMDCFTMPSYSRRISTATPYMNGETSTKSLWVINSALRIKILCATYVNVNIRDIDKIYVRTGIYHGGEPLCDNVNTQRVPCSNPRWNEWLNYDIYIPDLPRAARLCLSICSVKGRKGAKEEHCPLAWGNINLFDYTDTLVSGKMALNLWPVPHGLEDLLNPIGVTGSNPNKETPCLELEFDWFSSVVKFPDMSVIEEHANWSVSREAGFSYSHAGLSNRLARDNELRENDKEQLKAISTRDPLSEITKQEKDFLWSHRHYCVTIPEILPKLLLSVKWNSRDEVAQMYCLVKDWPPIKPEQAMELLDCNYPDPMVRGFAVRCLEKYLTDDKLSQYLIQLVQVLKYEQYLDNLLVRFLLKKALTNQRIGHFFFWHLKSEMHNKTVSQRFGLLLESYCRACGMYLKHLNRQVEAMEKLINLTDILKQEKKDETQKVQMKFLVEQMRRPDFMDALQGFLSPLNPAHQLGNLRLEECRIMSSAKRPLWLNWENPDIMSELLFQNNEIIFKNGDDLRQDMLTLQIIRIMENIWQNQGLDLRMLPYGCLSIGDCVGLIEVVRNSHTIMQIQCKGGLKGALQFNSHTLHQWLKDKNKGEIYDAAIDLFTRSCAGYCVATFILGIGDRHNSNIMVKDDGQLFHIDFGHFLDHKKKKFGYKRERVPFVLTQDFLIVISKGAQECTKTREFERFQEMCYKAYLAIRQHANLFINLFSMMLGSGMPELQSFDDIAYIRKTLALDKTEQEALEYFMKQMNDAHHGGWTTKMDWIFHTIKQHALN
Sequence of Dual specificity protein kinase CLK3 (P49761 whole entry, looked up): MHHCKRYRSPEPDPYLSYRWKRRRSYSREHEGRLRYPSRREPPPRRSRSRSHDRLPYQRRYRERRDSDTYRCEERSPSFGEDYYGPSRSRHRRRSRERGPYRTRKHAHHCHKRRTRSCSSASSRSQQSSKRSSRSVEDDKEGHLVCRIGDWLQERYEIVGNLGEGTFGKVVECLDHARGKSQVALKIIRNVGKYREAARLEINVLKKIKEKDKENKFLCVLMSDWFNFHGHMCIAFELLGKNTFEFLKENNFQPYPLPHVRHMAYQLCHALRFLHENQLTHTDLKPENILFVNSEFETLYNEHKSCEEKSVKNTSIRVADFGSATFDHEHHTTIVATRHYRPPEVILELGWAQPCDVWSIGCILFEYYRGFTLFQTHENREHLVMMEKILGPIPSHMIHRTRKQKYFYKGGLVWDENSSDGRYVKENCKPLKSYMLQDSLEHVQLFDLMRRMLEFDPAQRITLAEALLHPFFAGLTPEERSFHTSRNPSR
Sequence of Protein kinase C eta type (Homo sapiens) (P24723 whole entry): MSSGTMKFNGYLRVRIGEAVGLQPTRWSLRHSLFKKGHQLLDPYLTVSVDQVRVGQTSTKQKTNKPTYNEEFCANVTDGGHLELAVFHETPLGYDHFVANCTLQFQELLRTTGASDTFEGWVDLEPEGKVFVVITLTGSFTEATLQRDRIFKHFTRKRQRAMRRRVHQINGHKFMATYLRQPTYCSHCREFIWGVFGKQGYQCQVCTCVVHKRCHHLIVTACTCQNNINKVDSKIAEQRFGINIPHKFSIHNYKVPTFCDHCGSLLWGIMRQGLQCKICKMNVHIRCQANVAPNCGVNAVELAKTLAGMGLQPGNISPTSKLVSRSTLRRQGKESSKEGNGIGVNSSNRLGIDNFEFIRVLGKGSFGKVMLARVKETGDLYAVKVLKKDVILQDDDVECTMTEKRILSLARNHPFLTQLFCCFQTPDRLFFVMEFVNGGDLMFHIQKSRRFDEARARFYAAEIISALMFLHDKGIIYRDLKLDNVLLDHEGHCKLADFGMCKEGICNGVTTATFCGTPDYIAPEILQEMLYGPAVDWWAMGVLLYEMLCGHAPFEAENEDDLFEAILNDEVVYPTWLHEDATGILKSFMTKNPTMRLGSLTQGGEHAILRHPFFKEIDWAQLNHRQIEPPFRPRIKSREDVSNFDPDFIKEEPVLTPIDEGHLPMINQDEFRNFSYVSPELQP
Sequence of Delta-type opioid receptor (P41143 whole entry): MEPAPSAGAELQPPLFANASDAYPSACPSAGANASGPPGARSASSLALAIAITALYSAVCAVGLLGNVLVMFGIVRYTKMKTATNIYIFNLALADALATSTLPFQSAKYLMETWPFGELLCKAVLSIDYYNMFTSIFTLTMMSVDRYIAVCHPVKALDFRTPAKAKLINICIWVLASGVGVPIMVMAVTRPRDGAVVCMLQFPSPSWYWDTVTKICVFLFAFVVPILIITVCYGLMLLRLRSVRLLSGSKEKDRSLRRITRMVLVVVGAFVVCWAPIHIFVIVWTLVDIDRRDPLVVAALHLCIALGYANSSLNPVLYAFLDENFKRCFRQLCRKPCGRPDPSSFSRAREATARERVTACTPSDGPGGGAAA

**Q.** `CNC(=O)Nc1ccc(-c2nc(N3CC4CCC(C3)O4)c3cnn(C4CCC5(CC4)OCCO5)c3n2)cc1` was tested. Which % of inhibition (Ephrin type-A receptor 4) did it give?
**A.** -1%

**Q.** How did the % of inhibition [1] turn out when `Cc1cc(C)cc([C@@H]2c3cc(C)ccc3NC(=O)CN2C(=O)c2ccc(Br)s2)c1` was run?
**A.** -20%

**Q.** Which % of control [2] does the source give for `Cc1cc(F)c(C(=O)Nc2cccc(-c3nncn3C(C)C)n2)cc1-n1cnc(C2CC2)c1` here?
**A.** 89%

**Q.** Which results are given for `COCC(=O)NC/C=C/c1ccc2ncnc(Nc3ccc(Oc4ccc(C)nc4)c(C)c3)c2c1` [CP-724714]?
**A.** % of control [3]: 83%; % of control [4]: 100%

**Q.** How did the dTM [5] turn out when `CC(C)(O)[C@H](F)CN1Cc2cc(NC(=O)c3cnn4cccnc34)c(N3CCOCC3)cc2C1=O` was run?
**A.** 1.3 K

**Q.** For `C=CC(=O)Nc1cc(-n2c(=O)ccc3cnc4ccc(-c5ccc(NS(C)(=O)=O)cc5)cc4c32)ccc1C`, which % of control ([6]; at 1 µM) is on record?
**A.** 27%

**Q.** What about the % of control ([6]; at 10 µM) of the same molecule?
**A.** 4.2%

**Q.** Which % of control [7] does the source give for `Nc1cnc(N2CCc3cc(S(=O)(=O)Nc4c(F)cc(Cl)cc4F)cc(N4CCCC4=O)c32)nc1` [TP-020n] here?
**A.** 80%

**Q.** With `N#Cc1cccc(-c2c[nH]c3ncnc(N4CCOCC4)c23)c1` as the molecule, how does the % of inhibition [8] read?
**A.** -1%
